ChEMBL document CHEMBL6153087, “Emoquine-1: A Hybrid Molecule Efficient against Multidrug-Resistant Plasmodium Parasites, Including the Artemisinin-Resistant Quiescent Stage, and Also Active In Vivo” (J Med Chem, 2025)
The source made the active and inactive calls. The calls are words filed in the database; no cut-off is given here.

Key:
Plasmodium falciparum [1] = test: Antiplasmodial activity against artemisinin-resistant Plasmodium falciparum F32 assessed as inhibition of parasite growth incubated for 48 hrs of SYBR green fluorescence-based method; assay type: functional, organism-based; conditions: F32, 48 h
[2] = Selectivity index, ratio of CC50 for cytotoxicity against African green monkey Vero cells to IC50 for antiplasmodial activity against artemisinin-resistant Plasmodium falciparum F32; assay type: toxicity, cell-based; conditions: read-out: Ratio CC50/IC50
[3] = Cytotoxicity against African green monkey Vero cells assessed as cell metabolic activity incubated for 48 hrs by MTT assay; assay type: toxicity, cell-based; conditions: chlorocebus sabaeus
Plasmodium falciparum [4] = test: Antiplasmodial activity against synchronized ring stage artemisinin-sensitive Plasmodium falciparum F32 assessed as number of days required to reach 3% initial parasitemia by measuring median recrudescence time at 18 uM incubated for 48 hrs by recrudescence assay; assay type: functional
Plasmodium falciparum [5] = test: Antiplasmodial activity against synchronized ring stage artemisinin-resistant Plasmodium falciparum F32 assessed as number of days required to reach 3% initial parasitemia by measuring median recrudescence time at 18 uM incubated for 48 hrs by recrudescence assay; assay type: functional
[6] = tested on: Plasmodium vinckei petteri; test: Antiplasmodial activity Plasmodium vinckei petteri infected in female Swiss albino mouse model assessed as reduction in parasitemia administered orally for 4 days and measured on day 5; assay type: functional; conditions: 120 h, route po, time 5 day
[7] = tested on: Plasmodium vinckei petteri; test: Antiplasmodial activity Plasmodium vinckei petteri infected in female Swiss albino mouse model assessed as reduction in parasitemia administered intraperitoneally for 4 days and measured on day 5; assay type: functional; conditions: 120 h, route ip, time 5 day
Plasmodium falciparum [8] = test: Antiplasmodial activity against artemisinin-sensitive Plasmodium falciparum F32 assessed as inhibition of parasite growth incubated for 48 hrs of SYBR green fluorescence-based method; assay type: functional, organism-based; conditions: F32, 48 h
Plasmodium falciparum [9] = test: Antiplasmodial activity against chloroquine-resistant Plasmodium falciparum clinical isolate IPC8262 assessed as inhibition of parasite growth incubated for 48 hrs of SYBR green fluorescence-based method; assay type: functional, organism-based
Plasmodium falciparum [10] = test: Antiplasmodial activity against chloroquine-resistant Plasmodium falciparum clinical isolate IPC8461 assessed as inhibition of parasite growth incubated for 48 hrs of SYBR green fluorescence-based method; assay type: functional, organism-based
Plasmodium falciparum [11] = test: Antiplasmodial activity against atovaquone-resistant Plasmodium falciparum clinical isolate Q120 assessed as inhibition of parasite growth incubated for 48 hrs of SYBR green fluorescence-based method; assay type: functional, organism-based
Plasmodium falciparum [12] = test: Antiplasmodial activity against synchronized ring stage artemisinin-resistant Plasmodium falciparum F32 assessed as decrease in parasite recrudescence by measuring time required for parasites to reach initial parasitemia at […] incubated for 54 hrs by recrudescence assay; assay type: functional
Heme [13] = test: Inhibition of heme polymerization in acetate buffer at pH 5 assessed as reduction in beta-hematin formation at 2.0 molequiv incubated for 18 hrs by infrared spectroscopic analysis relative to control
Plasmodium falciparum [14] = test: Antiplasmodial activity against synchronized ring stage artemisinin-resistant Plasmodium falciparum F32 assessed as number of days required to reach 3% initial parasitemia by measuring median recrudescence time at 1 uM incubated for 48 hrs by recrudescence assay; assay type: functional
Plasmodium falciparum [15] = test: Antiplasmodial activity against synchronized ring stage artemisinin-sensitive Plasmodium falciparum F32 assessed as number of days required to reach 3% initial parasitemia by measuring median recrudescence time at 1 uM incubated for 48 hrs by recrudescence assay; assay type: functional
[16] = Metabolic stability in human liver microsomes at 1 uM measured after 1 hrs by LC-MS/MS analysis; assay type: ADME, Microsome
[17] = Metabolic stability in human liver microsomes assessed as half-life at 1 uM measured after 1 hrs by LC-MS/MS analysis; assay type: ADME, Microsome
[18] = Stability in human plasma assessed as parent compound remaining at 1 uM measured after 2 hrs by LC-MS/MS analysis; assay type: ADME, cell-free; conditions: read-out: Stability
Plasmodium falciparum [19] = test: (§1) Antiplasmodial activity against synchronized ring stage DHA-induced quiescent artemisinin-resistant Plasmodium falciparum F32 assessed as decrease in parasite recrudescence by measuring time required for parasites to reach initial parasitemia at 1 uM pretreated with dihydroartemisinin for 6 hrs followed by compound administration for 48 hrs in presence of dihydroartemisinin by quiescent-stage survival assay; assay type: functional
[20] = Thermal stability at 60 degreeC incubated for 2 months; assay type: physicochemical; conditions: 1460 h
Heme [21] = test: Inhibition of heme polymerization in acetate buffer at pH 5 assessed as reduction in beta-hematin formation at 5 equiv incubated for 18 hrs by infrared spectroscopic analysis relative to control
Plasmodium falciparum [22] = test: as §1, with “recrudescence” for “recrudescence by measuring time required for parasites to reach initial parasitemia”; assay type: functional, organism-based
Plasmodium falciparum [23] = test: Antiplasmodial activity against synchronized ring stage artemisinin-resistant Plasmodium falciparum F32 assessed as decrease in parasite recrudescence by measuring time required for parasites to reach initial parasitemia at 200 nM incubated for 48 hrs by recrudescence assay; assay type: functional
Plasmodium falciparum [24] = test: as §1, with “200 nM” for “1 uM”; assay type: functional
Plasmodium falciparum [25] = test: Antiplasmodial activity against Plasmodium falciparum; assay type: functional, organism-based
[26] = Inhibition of recombinant Plasmodium falciparum 3D7 FIKK8 by enzyme-coupled assay
Heme [27] = test: Inhibition of heme polymerization in acetate buffer at pH 5 assessed as reduction in beta-hematin formation at 15 equiv incubated for 18 hrs by infrared spectroscopic analysis relative to control
Heme [28] = test: Inhibition of heme polymerization in acetate buffer at pH 5 assessed as reduction in beta-hematin formation at 10 molequiv incubated for 18 hrs by infrared spectroscopic analysis
[29] = tested on: Plasmodium vinckei petteri; test: Antiplasmodial activity Plasmodium vinckei petteri infected in female Swiss mouse model assessed as reduction in parasitemia at 1 mg/kg/day, ip administered for 4 days starting from 4 hrs post infection and measured on day 5 by giemsa staining based analysis relative to control; assay type: functional; set-up: scale not given: the % may be the effect or the level left; conditions: time 5 day
[30] = tested on: Plasmodium vinckei petteri; test: Antiplasmodial activity Plasmodium vinckei petteri infected in female Swiss mouse model assessed as reduction in parasitemia at 25 mg/kg/day, po administered for 4 days starting from 4 hrs post infection and measured on day 5 by giemsa staining based analysis relative to control; assay type: functional; set-up: scale not given: the % may be the effect or the level left; conditions: time 5 day
[31] = tested on: Plasmodium vinckei petteri; test: Antiplasmodial activity Plasmodium vinckei petteri infected in female Swiss mouse model assessed as reduction in parasitemia at 0.1 mg/kg/day, ip administered for 4 days starting from 4 hrs post infection and measured on day 5 by giemsa staining based analysis; assay type: functional, organism-based; conditions: time 5.0 day
[32] = Toxicity in female Swiss mouse model infected with Plasmodium vinckei petteri assessed as clinical signs at 0.1 to 10 mg/kg/day, ip administered for 4 days and measured after 30 days; assay type: organism-based; conditions: in vivo, 720 h, dose 0.1-10 mg/kg/day, time 30 day
[33] = tested on: Plasmodium vinckei petteri; test: Antiplasmodial activity Plasmodium vinckei petteri infected in female Swiss mouse model assessed as reduction in parasitemia at 10 mg/kg/day, ip administered for 4 days starting from 4 hrs post infection and measured on day 30 by giemsa staining based analysis; assay type: functional, organism-based; conditions: time 30.0 day
[34] = tested on: Plasmodium vinckei petteri; test: Antiplasmodial activity Plasmodium vinckei petteri infected in female Swiss mouse model assessed as reduction in parasitemia at 10 mg/kg/day, ip administered for 4 days starting from 4 hrs post infection and measured on day 5 by giemsa staining based analysis; assay type: functional, organism-based; conditions: time 5.0 day
[35] = tested on: Plasmodium vinckei petteri; test: Antiplasmodial activity Plasmodium vinckei petteri infected in female Swiss mouse model assessed as reduction in parasitemia administered orally for 4 days starting from 4 hrs post infection and measured on day 30; assay type: functional; conditions: 720 h, route po, time 30 day
Plasmodium falciparum [36] = test: Antiplasmodial activity against synchronized ring stage artemisinin-sensitive Plasmodium falciparum F32 assessed as number of days required to reach 3% initial parasitemia by measuring median recrudescence time at 0.5 uM incubated for 48 hrs by recrudescence assay; assay type: functional
[37] = tested on: Plasmodium vinckei petteri; test: Antiplasmodial activity Plasmodium vinckei petteri infected in female Swiss mouse model assessed as reduction in parasitemia administered intraperitoneally for 4 days starting from 4 hrs post infection and measured on day 30; assay type: functional; conditions: 720 h, route ip, time 30 day
Plasmodium falciparum [38] = test: Antiplasmodial activity against synchronized ring stage artemisinin-resistant Plasmodium falciparum F32 assessed as number of days required to reach 3% initial parasitemia by measuring median recrudescence time at 0.5 uM incubated for 48 hrs by recrudescence assay; assay type: functional
Heme [39] = test: Inhibition of heme polymerization in acetate buffer at pH 5 assessed as reduction in beta-hematin formation at 1.2 molar ratio of drug to hemin incubated for 18 hrs by infrared spectroscopic analysis relative to control
Plasmodium falciparum [40] = test: Antiplasmodial activity against synchronized ring stage artemisinin-resistant Plasmodium falciparum F32 assessed as decrease in parasite recrudescence by measuring time required for parasites to reach initial parasitemia at 1 uM incubated for 48 hrs by recrudescence assay; assay type: functional
Plasmodium falciparum [41] = test: Antiplasmodial activity against synchronized ring stage artemisinin-resistant Plasmodium falciparum F32 assessed as number of days required to reach 3% initial parasitemia by measuring median recrudescence time at 7 uM incubated for 48 hrs by recrudescence assay; assay type: functional
Plasmodium falciparum [42] = test: Antiplasmodial activity against synchronized ring stage artemisinin-sensitive Plasmodium falciparum F32 assessed as number of days required to reach 3% initial parasitemia by measuring median recrudescence time at 7 uM incubated for 48 hrs by recrudescence assay; assay type: functional

SMILES	IC50 (Plasmodium falciparum [1])	selectivity ratio [2]	CC50 at 48 h [3]	IC50 (Plasmodium falciparum [8])	IC50 (Plasmodium falciparum [9])	IC50 (Plasmodium falciparum [10])	IC50 (Plasmodium falciparum [11])	also measured
Cc1cc(O)c2c(c1)C(=O)c1cc(OCCOCCN3CCN(c4ccnc5cc(Cl)ccc45)CC3)cc(O)c1C2=O	0.825 µM	15	12 µM					
C[C@@H]1CC[C@H]2[C@@H](C)C(=O)O[C@@H]3O[C@@]4(C)CC[C@@H]1[C@]32OO4 [ARTEMISININ]								Time (Plasmodium falciparum [4]): 15 days; Time (Plasmodium falciparum [5]): 10 days; ED50 [6]: 17 mg/kg/day; ED50 [7]: 4 mg/kg/day
C[C@H]1[C@@H](O)O[C@@H]2O[C@@]3(C)CC[C@H]4[C@H](C)CC[C@@H]1[C@@]24OO3 [ARTENIMOL]		12000	30 µM	0.0022 µM	0.0025 µM	0.0026 µM	0.0024 µM	Time (Plasmodium falciparum [12]): 8 days
Clc1ccc([C@@H](c2ccccc2)N2CCN(CCNc3ccnc4cc(Cl)ccc34)CC2)cc1	0.101 µM	140	14 µM	0.075 µM	0.033 µM	0.053 µM	9 µM	inhibition (Heme [13]): 100%; Time (Plasmodium falciparum [14]): 12 days; Time (Plasmodium falciparum [15]): 11 days; Stability [16]: Stable; half-life at 1 µM [17]: 46 min; remaining at 2 h, 1 µM [18]: 100%; Time (Plasmodium falciparum [19]): 7 days; Stability [20]: Stable
CCOCCOc1cc(O)c2c(c1)C(=O)c1cc(C)cc(O)c1C2=O	> 10 µM			> 10 µM				inhibition (Heme [21]): 100%; Activity (Plasmodium falciparum [22]): inactive
Clc1ccc2c(N3CCNCC3)ccnc2c1	1.31 µM			1.41 µM				
CCN(CC)CCCC(C)Nc1ccnc2cc(Cl)ccc12 (configuration not stated) [CHLOROQUINE]			> 50 µM					Time (Plasmodium falciparum [23]): >20 days; Time (Plasmodium falciparum [24]): 8 days
Cc1cc(O)c2c(c1)C(=O)c1cc(OCCN3CCN(c4ccnc5cc(Cl)ccc45)CC3)cc(O)c1C2=O	0.775 µM	> 13	> 10 µM					
Cc1cc(O)c2c(c1)C(=O)c1cc(O)cc(O)c1C2=O [EMODIN]	> 50 µM	< 0.7	34 µM					IC50 (Plasmodium falciparum [25]): > 10 µM; IC50 [26]: 2 µM
NCCNc1ccnc2cc(Cl)ccc12	0.054 µM	> 925	> 50 µM	0.028 µM	0.134 µM	0.354 µM	2.3 µM	inhibition (Heme [13]): inactive; inhibition (Heme [27]): 100%; inhibition (Heme [28]): inactive; Activity (Plasmodium falciparum [22]): inactive
Cc1cc(O)c2c(c1)C(=O)c1cc(OCCOCCNCCNc3ccnc4cc(Cl)ccc34)cc(O)c1C2=O	0.054 µM	222	12 µM	0.059 µM	0.033 µM	0.084 µM	0.024 µM	Activity [29]: 17%; Activity [30]: 44%; Time (Plasmodium falciparum [15]): >30 days; Activity [31]: inactive; remaining at 2 h, 1 µM [18]: 100%; Activity [32]: Non-toxic; Time (Plasmodium falciparum [19]): >22 days; Activity [33]: Active; Recrudescence Not Observed; Activity [34]: Not active; No Detectable Parasitemia Observed; ED50 [35]: ~25 mg/kg/day; Stability [20]: Stable; Time (Plasmodium falciparum [36]): 26 days; ED50 [37]: 4 mg/kg/day; Time (Plasmodium falciparum [38]): 23 days; inhibition (Heme [39]): 100%
Clc1ccc([C@@H](c2ccccc2)N2CCNCC2)cc1	> 10 µM	< 2	20 µM	6 µM			9 µM	inhibition (Heme [13]): inactive; inhibition (Heme [28]): inactive; Activity (Plasmodium falciparum [22]): inactive
O=C1C(O)=C([C@H]2CC[C@H](c3ccc(Cl)cc3)CC2)C(=O)c2ccccc21 [ATOVAQUONE]	0.0019 µM	3700	7 µM		0.0007 µM	0.001 µM	4.7 µM	Time (Plasmodium falciparum [40]): 14 days; Time (Plasmodium falciparum [41]): 16 days; Time (Plasmodium falciparum [19]): 20 days; Time (Plasmodium falciparum [42]): 13 days
